# Reference: US20260274798A1, “PENTAMIDINE ANALOGUE POLYMORPHS, FORMULATIONS, AND METHODS THEREOF” (AURANSA INC., priority 2023, published 2026)
# Entries after “also recorded” stand apart in the source; their conditions may differ.
# Assays:
# Format in all cases: physicochemical
# [1] = Competitive slurry experiments of Forms 1, 3, 8 and 9
# Method: Approximately 5 mg of Compound A diacetate salt Forms 1, 3, 8 and 9 were combined into 8×4 mL vials. The appropriate solvent was added to form a slurry and the samples were shaken at ambient or 60° C. for ca. 48 hours. The samples were then removed from shaking and centrifuge filtered. […] The solids were recovered from the XRPD plate and placed back on to shake as before for an additional 3 days before being re-analyzed by XRPD. […]
# [2] = Thermodynamic solubility in water and a pH 7.4 phosphate buffer; conditions: slurry agitated at ambient ca. 24 hours, HPLC; for solubility: diacetate; for solubility at 24 h: thermodynamic from solid
# Method: (§1) 25.6 mL of 2-propanol was added to the lyophilized Compound A diacetate salt to form a slurry. The slurry was then temperature cycled between ambient and 40° C. in 4 hour cycles with agitation for ca. 24 hours. The slurry was then filtered and the isolated solids collected into a scintillation vial. A subsample was analyzed by XRPD and the vial was left uncapped to allow the solids to […] at ambient for ca. 24 hours. The material was then re-analyzed by XRPD post-drying and fully characterized using the following techniques: TG/DSC, DSC, DVS with post-DVS XRPD analysis, PLM, FT-IR, ^1H NMR, Purity by HPLC, TG/DSC with post TG/DSC XRPD analysis, and 7 Day Stability Assessment (ca. 10 mg of the material was stored at 40° C./75% RH. 80° C. and ambient light and humidity for 1 week. The solids were then analyzed by XRPD and purity obtained by HPLC). Thermodynamic solubility in water and a pH 7.4 phosphate buffer (The appropriate media was added in 100 μL aliquots to ca. 20 mg of the material to form a slurry. The samples were then sealed and agitated at ambient for ca. 24 hours before being centrifuge filtered. The isolated solids were analyzed by XRPD and the concentration of the mother liquors determined by HPLC).
# The material appears highly insoluble in the phosphate buffer with all Forms having a solubility of 0.3 mg/mL except from Form 2 which has a solubility of 0.2 mg/mL.
# [3] = 7 Day Stability Assessment (XRPD form and HPLC purity after storage); conditions: diacetate; for one-week stability: form by XRPD: 1 week (Form 1: 2 and 7 days)
# Method: as §1
# [4] = Dynamic vapour sorption (DVS) with post-DVS XRPD; conditions: for form of recovered solid by post-DVS XRPD: after DVS cycles
# Method: Approximately, 10-20 mg of sample was placed into a mesh vapour sorption balance pan and loaded into a DVS Intrinsic dynamic vapour sorption balance by Surface Measurement Systems. The sample was subjected to a ramping profile from 40-90% relative humidity (RH) at 10% increments, maintaining the sample at each step until a stable weight had been achieved (dm/dt 0.004%, minimum step length 30 minutes, maximum step length 500 minutes) at 25° C. After completion of the sorption cycle, the sample was dried using the same procedure to 0% RH and then a second sorption cycle back to 40% RH. Two cycles were performed. The weight change during the sorption/desorption cycles were plotted, allowing for the hygroscopic nature of the sample to be determined. XRPD analysis was then carried out on any solid retained.
# [5] = Approximate solvent solubility screen of Compound A diacetate salt in 18 solvent systems; conditions: thermodynamic from solid
# Method: Approximately 380 mg of Form 1 was dissolved in 35 mL of methanol and rotary evaporated. […] A sub-sample was taken for further characterization (TG/DSC, ^1H NMR and PLM). The crystalline material isolated post rotary-evaporation was re-dissolved in 27 mL of water. The solution remained slightly turbid so was syringe filtered to give a clear solution which was split equally among 18 vials to give approximately 20 mg of material per vial. The samples were then frozen at −50° C. before being lyophilized for ca. 72 hours. […] This material was used as input for the solvent solubility screen described below.
# The solubility of Compound A diacetate salt was tested in 18 solvent systems. The appropriate solvent was added in 100 μL aliquots to approximately 20 mg of the lyophilized Compound A diacetate salt. Between each addition, the mixture was checked for dissolution and where no dissolution was apparent, the mixture was heated to ca. 40° C. and checked again. This procedure was continued until dissolution was observed or until 100 volumes of solvent had been added.
# The solids were then isolated via centrifugal filtration and analyzed by XRPD. If the samples fully dissolved on addition of solvent (methanol and water only), they were uncapped and left to evaporate at ambient. Any solids recovered post-evaporation were then analyzed by XRPD.
# [6] = Ethyl Acetate, 2000 μL, Ambient
# [7] = ambient temperature and humidity
smiles,measurement,setting,value
CC(=O)O.CC(=O)O.N=C(N)c1ccc(OCCCCCOc2ccc(C(=N)N)nc2)cc1,XRPD Pattern (2 Days),"[1]; Acetone, 1000 μL, 60° C.",All patterns
same,XRPD Pattern (5 Days),"[1]; Acetone, 1000 μL, 60° C.",All patterns
same,XRPD Pattern (2 Days),"[1]; Acetone, 2000 μL, Ambient",All patterns
same,XRPD Pattern (5 Days),"[1]; Acetone, 2000 μL, Ambient",All patterns
same,XRPD Pattern (2 Days),"[1]; DCM, 1000 μL, 60° C.",All patterns
same,XRPD Pattern (5 Days),"[1]; DCM, 1000 μL, 60° C.",All patterns
same,XRPD Pattern (2 Days),"[1]; DCM, 2000 μL, Ambient",All patterns
same,XRPD Pattern (5 Days),"[1]; DCM, 2000 μL, Ambient",All patterns
same,XRPD Pattern (2 Days),"[1]; Ethanol, 1000 μL, 60° C.",8 + 1
same,XRPD Pattern (2 Days),"[1]; Ethanol, 2000 μL, Ambient",8 + 1
same,XRPD Pattern (5 Days),"[1]; Ethanol, 2000 μL, Ambient",6
same,XRPD Pattern (2 Days),[1]; [6],All patterns
same,XRPD Pattern (5 Days),[1]; [6],All patterns
same,XRPD Pattern (2 Days),"[1]; Etyl Acetate, 1000 μL, 60° C.",All patterns
same,XRPD Pattern (5 Days),"[1]; Etyl Acetate, 1000 μL, 60° C.",1 + 8
"CC(=O)O.CC(=O)O.N=C(N)c1ccc(OCCCCCOc2ccc(C(=N)N)nc2)cc1 [Form 1, 5-((5-(4-carbamimidoylphenoxy)pentyl)oxy)picolinimidamide diacetate]",solubility,[2]; pH 7.4 Phosphate Buffer,300 µg/mL
same,solubility at 24 h,[2]; water,49500 µg/mL
same,one-week stability: form by XRPD,[3]; 40° C./75% RH,no change in form
same,one-week stability: form by XRPD,[3]; 80° C.,no change in form
same,one-week stability: form by XRPD,[3]; [7],no change in form
same,1 Week Stability,"[3]; form by XRPD after storage at 40° C./75% RH, ambient or 80° C.",No change in form by XRPD
same,hygroscopicity by DVS,"[4]; DVS, 25° C., diacetate",slightly hygroscopic
same,DVS: form post-DVS,[4]; XRPD post-DVS,water) at 90% RH. No change
same,form of recovered solid by post-DVS XRPD,"[4]; 25° C., diacetate",remained as the received pattern 1; also recorded: No change in form
same,DVS,"[4]; hygroscopicity / form change during DVS cycle, diacetate",Slightly hygroscopic
"CC(=O)O.CC(=O)O.N=C(N)c1ccc(OCCCCCOc2ccc(C(=N)N)nc2)cc1 [Compound A diacetate salt, 5-((5-(4-carbamimidoylphenoxy)pentyl)oxy)picolinimidamide diacetate]",solubility,"[5]; all solvents investigated except methanol and water, organic solvent or mixture, read-out: solubility",< 5000 µg/mL
same,solubility,"[5]; organic solvent or mixture, 1,4-Dioxane, lyophilized material, ambient to ca. 40° C., read-out: Approximate Solvent Solubility",≤ 5000 µg/mL
same,solubility,"[5]; organic solvent or mixture, 2-Propanol, lyophilized material, ambient to ca. 40° C., read-out: Approximate Solvent Solubility",≤ 5000 µg/mL
same,solubility,"[5]; organic solvent or mixture, 2-methyl THF, lyophilized material, ambient to ca. 40° C., read-out: Approximate Solvent Solubility",≤ 5000 µg/mL
same,solubility,"[5]; organic solvent or mixture, Acetone, lyophilized material, ambient to ca. 40° C., read-out: Approximate Solvent Solubility",≤ 5000 µg/mL
same,solubility,"[5]; organic solvent or mixture, Acetonitrile, lyophilized material, ambient to ca. 40° C., read-out: Approximate Solvent Solubility",≤ 5000 µg/mL
same,solubility,"[5]; organic solvent or mixture, Dichloromethane, lyophilized material, ambient to ca. 40° C., read-out: Approximate Solvent Solubility",≤ 5000 µg/mL
same,solubility,"[5]; organic solvent or mixture, Dimethylsulfoxide, lyophilized material, ambient to ca. 40° C., read-out: Approximate Solvent Solubility",≤ 5000 µg/mL
same,solubility,"[5]; organic solvent or mixture, Ethanol, lyophilized material, ambient to ca. 40° C., read-out: Approximate Solvent Solubility",≤ 5000 µg/mL
same,solubility,"[5]; organic solvent or mixture, Ethyl Acetate, lyophilized material, ambient to ca. 40° C., read-out: Approximate Solvent Solubility",≤ 5000 µg/mL
same,solubility,"[5]; organic solvent or mixture, Isopropyl Acetate, lyophilized material, ambient to ca. 40° C., read-out: Approximate Solvent Solubility",≤ 5000 µg/mL
same,solubility,"[5]; organic solvent or mixture, Methanol, lyophilized material, ambient to ca. 40° C., read-out: Approximate Solvent Solubility",20000 µg/mL
same,solubility,"[5]; organic solvent or mixture, Methylethyl Ketone, lyophilized material, ambient to ca. 40° C., read-out: Approximate Solvent Solubility",≤ 5000 µg/mL
same,solubility,"[5]; organic solvent or mixture, N,N′-Dimethylacetamide, lyophilized material, ambient to ca. 40° C., read-out: Approximate Solvent Solubility",≤ 5000 µg/mL
same,solubility,"[5]; organic solvent or mixture, N,N′-Dimethylformamide, lyophilized material, ambient to ca. 40° C., read-out: Approximate Solvent Solubility",≤ 5000 µg/mL
same,solubility,"[5]; organic solvent or mixture, N-Methylpyrrolidone, lyophilized material, ambient to ca. 40° C., read-out: Approximate Solvent Solubility",≤ 5000 µg/mL
same,solubility,"[5]; organic solvent or mixture, Tetrahydrofuran, lyophilized material, ambient to ca. 40° C., read-out: Approximate Solvent Solubility",≤ 5000 µg/mL
same,solubility,"[5]; organic solvent or mixture, Toluene, lyophilized material, ambient to ca. 40° C., read-out: Approximate Solvent Solubility",≤ 5000 µg/mL
same,solubility,"[5]; Water, lyophilized material, ambient to ca. 40° C., read-out: Approximate Solvent Solubility",50000 µg/mL
"CC(=O)O.CC(=O)O.N=C(N)c1ccc(OCCCCCOc2ccc(C(=N)N)nc2)cc1 [Form 3, 5-((5-(4-carbamimidoylphenoxy)pentyl)oxy)picolinimidamide diacetate]",solubility,[2]; Water,38500 µg/mL
same,solubility,[2]; pH 7.4 Phosphate Buffer,200 µg/mL
same,one-week stability: form by XRPD,[3]; 40° C./75% RH,convert to Form 1
same,one-week stability: form by XRPD,[3]; 80° C.,no change
same,one-week stability: form by XRPD,[3]; [7],convert to Form 1
same,form of recovered solid by post-DVS XRPD,"[4]; 25° C., diacetate",conversion to Form 9
same,form conversion during DVS,"[4]; at 50% RH, 25° C., diacetate",convert to the hydrated Form 9; also recorded: convert to Form 9 (dihydrate)
same,weight loss on form conversion during DVS,"[4]; at 50% RH, 25° C., diacetate",approximately 4 wt. %
"CC(=O)O.CC(=O)O.N=C(N)c1ccc(OCCCCCOc2ccc(C(=N)N)nc2)cc1 [Form 2, 5-((5-(4-carbamimidoylphenoxy)pentyl)oxy)picolinimidamide diacetate]",solubility at 24 h,"[2]; phosphate buffer, pH 7.4, aqueous buffer, pH 7.4 Phosphate Buffer",200 µg/mL
